{"source": "patent US8404733B2", "about": "“Laser enhanced amino acid blend and use of same to regenerate active myocardial tissue” (priority 2010, dated 2013)", "tested_on": "murine macrophages", "experiment": "TNF-alpha production (ELISA) by Echinacea activated murine macrophages", "type": "cell-based", "conditions": "24 hours; amino acid samples 20 mg/ml together with Echinacea; LPS 1 ng/ml; Negative Control 215 +/- 13.7", "description": "The rationale for the use of this process of laser enhancement is the result of an in vitro study using a similar short wavelength laser treatment. In this study, murine macrophages that were activated with Echinacea to simulate an irritated immune system were then fed the above formula of amino acids in the untreated and laser treated conditions. […] The specific details of the in vitro study are as follows. 20 grams of the amino acid blend as detailed above was used for each of the control and treated amino acid samples. The Untreated Sample was not treated. The Treated Sample was exposed to laser radiation from a 458 nm pumped argon gas laser with a primary power of 16.5 mW adjusted through the optics to a power level of 5.1 mW The duration of treatment of the sample was 30 seconds. The following bioassays were performed. A standardized Echinacea sample alone or with 20 mg/ml of the Untreated or Treated Sample amino acids were incubated in tissue culture media of triplicate wells of murine macrophages. […] The results were as follows and are expressed as the mean TNF-alpha production plus or minus the statistical standard deviation (SD): Using a Student's 2-tailed t-test, the Echinacea Stimulated Sample was compared to the results of Echinacea plus the Untreated Amino Acid Sample or the Treated Amino Acid Sample.", "data": [{"substance": "lipopolysaccharide [LPS]", "values": [{"measurement": "TNF-alpha +/- SD (mean TNF-alpha production)", "value": "2863 +/− 185.7"}]}]}
